Measured values published in the NIST ThermoML archive (doi:10.1021/je5000605).
Numbers after ± are expanded uncertainties.

Details: 293.15 K; 101.33 kPa; Crystal; Pycnometric method

C=CC1=C(C(=O)O)N2C(=O)[C@@H](NC(=O)/C(=N\OCC(=O)O)c3csc(N)n3)[C@H]2SC1.O.O.O [cefixime trihydrate]
molar volume: 0.0004982 ± 1e-05 m3/mol
